Read-outs that look alike come from different tables or passages of the source.
How the values were obtained:
HCV NS5B-21 = HCV NS5B-21 (Hepatitis C virus genotype 1b (isolate Con1) (HCV), UniProt Q9WMX2); assay: Enzyme assay, HCV NS5B-21 SPA (scintillation proximity assay); format: biochemical; conditions: triphosphates
Protocol: It is this triphosphate which is believed to be the antivirally active species. The enzyme assay described here may be used to confirm that compounds of the invention are antivirally active as the 5′-triphosphate metabolite.
The enzyme assay measures the inhibitory effect of triphosphate compounds in an HCV NS5B-21 (21-amino acid C-terminally truncated version) SPA assay (scintillation proximity assay). The assay is performed by evaluating the amount of radiolabelled ATP incorporated by HCV NS5B-21 into newly synthesized RNA using an heterogeneous biotinylated RNA template.
To determine IC50 values the compounds are tested at various concentrations in a final volume of 100 μl of reaction mixture. The reaction is stopped by addition of 0.5M EDTA solution.
The samples are transferred into flashplates precoated with streptavidin. The incorporated radioactivity is quantified using a scintillation counter (Wallac Microbeta Trilux).
The assay should include enzyme controls (about four, containing 1 μl DMSO instead of inhibitor) and background control containing all ingredients except template.
Compounds are serially diluted in DMSO on a separate dilution plate to 100× the final desired assay concentrations. […]
Incubate the plate over night and read the flash plate in the Microbeta Trilux using the protocol Flash plates H3. […]
IC50 is determined using Graphpad Prism. […]

[1] = test system: HCV type 1b replicon (Huh-7 luc/neo, Huh-Luc); assay: Replicon assay, Huh-Luc cells with HCV type 1b replicon (stable), luciferase readout; format: cell-based; conditions: Huh-Luc HCV 1b replicon, three days incubation, luciferase activity, read-out: EC50
Source text: The compounds of formula I may be examined for activity in the inhibition of HCV RNA replication in a cellular assay aimed at identifying compounds that inhibit a HCV functional cellular replicating cell line, also known as HCV replicons. A suitable cellular assay is based on a bicistronic expression construct, as described by Lohmann et al. (1999), Science vol. 285 pp. 110-113 with modifications described by Krieger et al. (2001), Journal of Virology 75: 4614-4624, in a multi-target screening strategy.
The assay utilizes the stably transfected cell line Huh-7 luc/neo (hereafter referred to as Huh-Luc). This cell line harbors an RNA encoding a bicistronic expression construct comprising the wild type NS3-NS5B regions of HCV type 1b translated from an Internal Ribosome Entry Site (IRES) from encephalomyocarditis virus (EMCV), preceded by a reporter portion (FfL-luciferase), and a selectable marker portion (neo^R, neomycine phosphotransferase). The construct is bordered by 5′ and 3′ NTRs (non-translated regions) from HCV type 1b. Continued culture of the replicon cells in the presence of G418 (neo^R) is dependent on the replication of the HCV RNA. The stably transfected replicon cells that express HCV RNA, which replicates autonomously and to high levels, encoding inter alia luciferase, are used for screening the antiviral compounds.
The replicon cells are plated in 384 well plates in the presence of the test and control compounds which are added in various concentrations. Following an incubation of three days, HCV replication is measured by assaying luciferase activity (using standard luciferase assay substrates and reagents and a Perkin Elmer ViewLux™ ultraHTS microplate imager). Replicon cells in the control cultures have high luciferase expression in the absence of any inhibitor. The inhibitory activity of a compound on luciferase activity is monitored on the Huh-Luc cells, enabling a dose-response curve for each test compound. EC50 values are then calculated, which value represents the amount of the compound required to decrease the level of detected luciferase activity by 50%, or more specifically, the ability of the genetically linked HCV replicon RNA to replicate.

Row | Compound | EC50 ([1]; Hepatitis C virus, Huh-7, 72 h) | other results
1 | Nc1ccn([C@@H]2O[C@H](COP(=O)(O)OP(=O)(O)OP(=O)(O)O)[C@@H](O)[C@]2(F)Cl)c(=O)n1 [Example 27, (((2R,3R,4 S, 5R)-5-(4-amino-2-oxopyrimidin-1(2H)-yl)-4-chloro-4-fluoro-3-hydroxytetrahydrofuran-2-yl)methyl)triphosphoric acid] |  | IC50 (HCV NS5B-21): 89 nM
2 | COCC(COC)OC(=O)[C@H](C)NP(=O)(OC[C@H]1O[C@@H](n2ccc(=O)[nH]c2=O)[C@@](F)(Cl)[C@@H]1O)Oc1ccccc1 (stereo partly drawn) [Example 21] | 210 nM | 
3 | CC(C)OC(=O)[C@H](C)NP(=O)(OC[C@H]1O[C@@H](n2ccc(=O)[nH]c2=O)[C@@](F)(Cl)[C@@H]1O)Oc1ccccc1 (stereo partly drawn) [Example 23] |  | EC50 [1]: 5100 nM
4 | CC(C)OC(=O)[C@H](C)NP(=O)(OC[C@H]1O[C@@H](n2ccc(=O)[nH]c2=O)[C@@](F)(Cl)[C@@H]1O)Oc1cccc2ncccc12 (stereo partly drawn) [Example 24] | 1400 nM | 
5 | CC(C)OC(=O)[C@H](C)NP(=O)(OC[C@H]1O[C@@H](n2ccc(N)nc2=O)[C@@](F)(Cl)[C@@H]1O)Oc1ccccc1 (stereo partly drawn) [Example 26, (2S)-Isopropyl 2-(((((2R,3R,4S,5R)-5-(4-amino-2-oxopyrimidin-1(2H)-yl)-4-chloro-4-fluoro-3-hydroxytetrahydrofuran-2-yl)methoxy)(phenoxy)phosphoryl)amino)propanoate] | 86 nM | 
6 | CC(C)OC(=O)[C@H](C)NP(=O)(OC[C@H]1O[C@@H](n2ccc(=O)[nH]c2=O)[C@@](F)(Cl)[C@@H]1O)Oc1ccc(C2(C)CC2)cc1 (stereo partly drawn) [Example 17] | 110 nM | 
7 | CCC(CC)COC(=O)[C@H](C)NP(=O)(OC[C@H]1O[C@@H](n2ccc(=O)[nH]c2=O)[C@@](F)(Cl)[C@@H]1O)Oc1ccccc1 (stereo partly drawn) [Example 7] | 55 nM | 
8 | COC[C@H](C)OC(=O)[C@H](C)NP(=O)(OC[C@H]1O[C@@H](n2ccc(=O)[nH]c2=O)[C@@](F)(Cl)[C@@H]1O)Oc1ccccc1 (stereo partly drawn) [Example 25] | 100 nM | 
9 | COC[C@@H](C)OC(=O)[C@H](C)NP(=O)(OC[C@H]1O[C@@H](n2ccc(=O)[nH]c2=O)[C@@](F)(Cl)[C@@H]1O)Oc1ccccc1 (stereo partly drawn) [Example 20] | 65 nM | 
10 | CCC(CC)OC(=O)[C@H](C)NP(=O)(OC[C@H]1O[C@@H](n2ccc(=O)[nH]c2=O)[C@@](F)(Cl)[C@@H]1O)Oc1ccccc1 (stereo partly drawn) [Example 22] | 58 nM | 
11 | C[C@H](NP(=O)(OC[C@H]1O[C@@H](n2ccc(=O)[nH]c2=O)[C@@](F)(Cl)[C@@H]1O)Oc1ccccc1)C(=O)OC1CCCCC1 (stereo partly drawn) [Example 4, (2S)-cyclohexyl 2-(((((2R,3R,4S,5R)-4-chloro-5-(2,4-dioxo-3,4-dihydropyrimidin-1(2H)-yl)-4-fluoro-3-hydroxytetrahydrofuran-2-yl)methoxy)(phenoxy)phosphoryl)amino)propanoate] | 90 nM | 
12 | O=c1ccn([C@@H]2O[C@H](COP(=O)(O)OP(=O)(O)OP(=O)(O)O)[C@@H](O)[C@]2(F)Cl)c(=O)[nH]1 [Example 3, Lithium ((2R,3R,4 S,5R)-4-chloro-5-(2,4-dioxo-3,4-dihydropyrimidin-1(2H)-yl)-4-fluoro-3-hydroxytetrahydrofuran-2-yl)methyl triphosphate] |  | IC50 (HCV NS5B-21): 720 nM
13 | CC(C)OC(=O)[C@H](C)NP(=O)(OC[C@H]1O[C@@H](n2ccc(=O)[nH]c2=O)[C@@](F)(Cl)[C@@H]1O)Oc1cccc(C2CCC2)c1 (stereo partly drawn) [Example 15] | 90 nM | 
14 | CC[C@H](C)OC(=O)[C@H](C)NP(=O)(OC[C@H]1O[C@@H](n2ccc(=O)[nH]c2=O)[C@@](F)(Cl)[C@@H]1O)Oc1ccccc1 (stereo partly drawn) [Example 13] | 61 nM | 
15 | COc1ccccc1OP(=O)(N[C@@H](C)C(=O)OC(C)C)OC[C@H]1O[C@@H](n2ccc(=O)[nH]c2=O)[C@@](F)(Cl)[C@@H]1O (stereo partly drawn) [Example 10] | 45 nM | 
16 | CCCOC(=O)[C@H](C)NP(=O)(OC[C@H]1O[C@@H](n2ccc(=O)[nH]c2=O)[C@@](F)(Cl)[C@@H]1O)Oc1ccccc1 (stereo partly drawn) [Example 14] | 76 nM | 
17 | CC(C)OC(=O)[C@H](C)NP(=O)(OC[C@H]1O[C@@H](n2ccc(=O)[nH]c2=O)[C@@](F)(Cl)[C@@H]1O)Oc1cccc(C2CC2)c1 (stereo partly drawn) [Example 12] | 180 nM | 
18 | O=c1ccn([C@@H]2O[C@H](CO)[C@@H](O)[C@]2(F)Cl)c(=O)[nH]1 [Example 1, 1-((2R,3S,4R,5R)-3-chloro-3-fluoro-4-hydroxy-5-(hydroxymethyl)tetrahydrofuran-2-yl)pyrimidine-2,4(1H,3H)-dione] | > 50000 nM | 
19 | CC[C@@H](C)OC(=O)[C@H](C)NP(=O)(OC[C@H]1O[C@@H](n2ccc(=O)[nH]c2=O)[C@@](F)(Cl)[C@@H]1O)Oc1ccccc1 (stereo partly drawn) [Example 5] | 43 nM | 
20 | CCCCOC(=O)[C@H](C)NP(=O)(OC[C@H]1O[C@@H](n2ccc(=O)[nH]c2=O)[C@@](F)(Cl)[C@@H]1O)Oc1ccccc1 (stereo partly drawn) [Example 8] | 44 nM | 
21 | COc1ccc(OP(=O)(N[C@@H](C)C(=O)OC(C)C)OC[C@H]2O[C@@H](n3ccc(=O)[nH]c3=O)[C@@](F)(Cl)[C@@H]2O)cc1 (stereo partly drawn) [Example 11] | 150 nM | 
22 | CC(C)OC(=O)[C@H](C)NP(=O)(OC[C@H]1O[C@@H](n2ccc(=O)[nH]c2=O)[C@@](F)(Cl)[C@@H]1O)Oc1ccc2c(c1)OCO2 (stereo partly drawn) [Example 9] | 190 nM | 
23 | CCOC(=O)[C@H](C)NP(=O)(OC[C@H]1O[C@@H](n2ccc(=O)[nH]c2=O)[C@@](F)(Cl)[C@@H]1O)Oc1ccccc1 (stereo partly drawn) [Example 6] | 79 nM | 
24 | CC(C)OC(=O)[C@H](C)NP(=O)(OC[C@H]1O[C@@H](n2ccc(=O)[nH]c2=O)[C@@](F)(Cl)[C@@H]1O)Oc1cccc(C2(C)CC2)c1 (stereo partly drawn) [Example 16] | 91 nM | 

— US10106571B2, “HCV polymerase inhibitors” (priority 2013, dated 2018)
